These results are taken from US11992494B2, “Cyclopentathiophene carboxamide derivatives as platelet activating factor receptor antagonists” (Boehringer Ingelheim International GmbH, priority 2021, dated 2024).

As usually defined, the IC50 is the concentration that gives 50% inhibition. Read a high IC50 as weaker potency in that assay.

The structures appear in SMILES notation.

Chain of PAFR (P25105 whole entry): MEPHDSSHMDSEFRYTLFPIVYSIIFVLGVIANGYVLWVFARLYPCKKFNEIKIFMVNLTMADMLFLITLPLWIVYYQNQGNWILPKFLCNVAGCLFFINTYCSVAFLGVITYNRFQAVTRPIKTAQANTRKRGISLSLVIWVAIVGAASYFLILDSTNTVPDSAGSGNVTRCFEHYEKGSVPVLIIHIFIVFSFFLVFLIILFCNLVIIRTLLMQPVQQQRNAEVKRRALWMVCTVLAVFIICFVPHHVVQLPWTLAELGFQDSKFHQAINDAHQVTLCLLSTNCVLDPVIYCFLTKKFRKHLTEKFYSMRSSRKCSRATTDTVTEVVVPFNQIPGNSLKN

The target of one assay is PAFR (Homo sapiens, UniProt P25105). The experiment in a line: cellular HTRF IP1 assay: inhibition of PAFR activation by PAF C-16 ligand (endpoint assay). The assay is classed as cell-based. Details: expressed in transfected cells; host or cells: HEK293. The settings on record: HEK293 cells overexpressing human PAFR; PAF ligand 11 nM; Table 2. The procedure: The ability of compounds of formula (I) to inhibit the activation of the PAF receptor (PAFR) by the PAF C-16 ligand (PAF) is determined using the following cellular HTRF IP1 assay (IP1 Gq assay kit from Cisbio, Cat. no.: 62IP1APEJ) in assay buffer (1×HBSS, 20 mM Hepes, pH 7.4, 50 mM LiCl and containing 0.1% (w/v) BSA):
Evaluation of the Inhibition of PAFR Activation Using an Endpoint Assay
HEK293 cells overexpressing human PAFR (produced in-house) are seeded into a Poly-D-Lysine coated 384 well white cell culture microtiter assay plate with lid (15.000 cells per well). Subsequently, the plates are incubated over night at 37° C./5% CO2. On the next day, cells are being washed and subsequently, various concentrations of the test compounds (compounds in 100% DMSO; final concentration of DMSO in wells is 1%) are added to the assay plate via Echo 555 acoustic liquid handler. Plates are then incubated with lid for 90 minutes at 37° C./5% CO2. Thereafter, PAF ligand (Cayman Chemical Company, Item no.: 60900) is added at a final concentration of 11 nM. Plates are then incubated with lid for 60 minutes at 37° C./5% CO2. Then, 5 μl per well of Anti-IP1-Antibody-Cryptate solution and 5 μl per well of IP1-d2 solution are added to all wells of the plate and the plate is incubated for another 60 minutes light protected at room temperature. The emissions at 620 nm and 665 nm (Excitation wavelength: 320 nm) are measured using an Envision Reader (PerkinElmer).
`Cc1nnc2n1-c1sc3c(c1C(c1ccccc1Cl)=NC21CC1)C[C@H](C(=O)N1CCC(F)(F)C1)C3` [Example 105, (13′S)-9′-(2-chlorophenyl)-13′-(3,3-difluoro-pyrrolidine-1-carbonyl)-3′-methyl-16′-thia-2′,4′,5′,8′-tetraazaspiro[cyclopropane-1,7′-tetracyclo[8.6.0.0^2,6.0^11,15]hexadecane]-1′(10′),3′,5′,8′,11′(15′)-pentaene] came in with a half-inhibitory concentration (IC50) of 3.6 nM.
Still for that read-out and setting: as for `Cc1nnc2n1-c1sc3c(c1C(c1ccccc1Cl)=NC21CC1)C[C@H](C(=O)N[C@H]1CC[C@@H](C(F)(F)F)CC1)C3` [Example 52], the figure is 1.8 nM.
The same measure, in the same setting: next, `Cc1nnc2n1-c1sc3c(c1C(c1ccccc1Cl)=NC21CC1)C[C@H](C(=O)NC1CCCS(=O)(=O)C1)C3` (stereo partly drawn) [Example 121, (13′S)-9′-(2-chlorophenyl)-N-(1,1-dioxo-1lambda6-thian-3-yl)-3′-methyl-16′-thia-2′,4′,5′,8′-tetraazaspiro[cyclopropane-1,7′-tetra-cyclo[8.6.0.0^2,6.0^11,15]hexadecane]-1′(10′),3′,5′,8′,11′(15′)-pentaene-13′-carboxamide]: 30 nM.
`Cc1nnc2n1-c1sc3c(c1C(c1ccccc1Cl)=NC21CC1)C[C@H](C(=O)NC1(c2cncnc2)CC1)C3` [Example 117] returned an IC50 of 28 nM. The IC50 values of the last two molecules are within 1.5-fold of each other.
Still for that read-out and setting: next, `CO[C@@H]1CCCCC1N(C)C(=O)[C@@H]1Cc2sc3c(c2C1)C(c1ccccc1Cl)=NC1(CC1)c1nnc(C)n1-3` (stereo partly drawn) [Example 84]: 2.3 nM.
Same read-out and setting: as for `Cc1nnc2n1-c1sc3c(c1C(c1ccccc1Cl)=NC21CC1)C[C@H](C(=O)N[C@H]1C[C@H](C#N)C1)C3` [Example 49], the figure is 7.7 nM; as for `Cc1nnc2n1-c1sc3c(c1C(c1ccccc1Cl)=NC21CC1)C[C@H](C(=O)N[C@H]1CC[C@H](C(F)F)CC1)C3` [Example 76], 1.9 nM.
On the same count and under the same terms, as for `Cc1nnc2n1-c1sc3c(c1C(c1ccccc1Cl)=NC21CC1)C[C@H](C(=O)NC1CCC(F)(F)CC1)C3` [Example 118], the figure is 2.8 nM.
Take `Cc1nnc2n1-c1sc3c(c1C(c1ccccc1Cl)=NC21CC1)C[C@H](C(=O)NC1CCOC(C)(C)C1)C3` (stereo partly drawn) [Example 33]: half-maximal inhibition (IC50) required 11 nM.
Same read-out and setting: as for `Cc1nnc2n1-c1sc3c(c1C(c1ccccc1Cl)=NC21CC1)C[C@H](C(=O)NC1CCc2cccnc21)C3` (stereo partly drawn) [Example 42], the figure is 7 nM.
Consider `Cc1nnc2n1-c1sc3c(c1C(c1ccccc1Cl)=NC21CC1)C[C@H](C(=O)N[C@H]1C[C@@H]1C)C3` [Example 12], for which the 50% inhibitory concentration (IC50) is 2.2 nM.
Same read-out and setting: as for `Cc1nnc2n1-c1sc3c(c1C(c1ccccc1Cl)=NC21CC1)C[C@H](C(=O)NC1COCC(F)(F)C1)C3` (stereo partly drawn) [Example 43], the figure is 3.7 nM.
Same read-out and setting: as for `Cc1nnc2n1-c1sc3c(c1C(c1ccccc1Cl)=NC21CC1)C[C@H](C(=O)NC1CC2(CCC2)C1)C3` [Example 80], the figure is 2 nM; as for `Cc1nnc2n1-c1sc3c(c1C(c1ccccc1Cl)=NC21CC1)C[C@H](C(=O)N(C)C1CCC1)C3` [Example 21], 1.1 nM; as for `Cc1nnc2n1-c1sc3c(c1C(c1ccccc1Cl)=NC21CC1)C[C@H](C(=O)N(C)[C@@H]1CCOC1)C3` [Example 48], 6.7 nM.
The molecule `Cc1nnc2n1-c1sc3c(c1C(c1ccccc1Cl)=NC21CC1)C[C@H](C(=O)N1CCO[C@@H](C)C1)C3` [Example 106, (13′S)-9′-(2-chlorophenyl)-3′-methyl-13′-[(2S)-2-methylmorpholine-4-carbonyl]-16′-thia-2′,4′,5′,8′-tetraazaspiro[cyclopropane-1,7′-tetracyclo-[8.6.0.0^2,6.0^11,15]hexadecane}-1′(10′),3′,5′,8′,11′(15′)-pentaene] had an IC50 of 7.5 nM. This IC50 and that of the molecule before are within 1.5-fold of each other.
Still for that read-out and setting: next, `Cc1ccccc1C1=NC2(CC2)c2nnc(C)n2-c2sc3c(c21)C[C@H](C(=O)N1CCOCC1)C3` [Example 8, (13′S)-3′-methyl-9′-(2-methylphenyl)-13′-(morpholine-4-carbonyl)-16′-thia-2′,4′,5′,8′-tetraazaspiro[cyclopropane-1,7′-tetracyclo[8.6.0.0^2,6.0^11,15]hexadecane]-1′(10′),3′,5′,8′,11′(15′)-pentaene]: 8.4 nM.
The same measure, in the same setting: as for `Cc1nnc2n1-c1sc3c(c1C(c1ccccc1Cl)=NC21CC1)C[C@H](C(=O)N[C@H]1C[C@H](S(C)(=O)=O)C1)C3` [Example 113], the figure is 28 nM.
Same read-out and setting: next, `Cc1nnc2n1-c1sc3c(c1C(c1ccccc1Cl)=NC21CC1)C[C@H](C(=O)NC1(C)CCOCC1)C3` [Example 45]: 12 nM; `Cc1nnc2n1-c1sc3c(c1C(c1ccccc1Cl)=NC21CC1)C[C@H](C(=O)N[C@@H]1CCOC1)C3` [Example 95]: 17 nM; `COc1ccccc1C1=NC2(CC2)c2nnc(C)n2-c2sc3c(c21)C[C@H](C(=O)N1CCOCC1)C3` [Example 130, (13′S)-9′-(2-methoxyphenyl)-3′-methyl-13′-(morpholine-4-carbonyl)-16′-thia-2′,4′,5′,8′-tetraazaspiro[cyclopropane-1,7′-tetracyclo[8.6.0.0^2,6.0^11,15]hexadecane]-1′(10′),3′,5′,8′,11′(15′)-pentaene]: 84 nM.
Molecule `Cc1nnc2n1-c1sc3c(c1C(c1ccccc1Cl)=NC21CC1)C[C@H](C(=O)N(C)[C@H]1CCCC[C@H]1O)C3` [Example 102] showed an IC50 of 6.9 nM.
Same read-out and setting: as for `Cc1nnc2n1-c1sc3c(c1C(c1ccccc1)=NC21CC1)C[C@H](C(=O)N1CCOCC1)C3` [Example 120, (13′S)-3′-methyl-13′-(morpholine-4-carbonyl)-9′-phenyl-16′-thia-2′,4′,5′,8′-tetraazaspiro[cyclopropane-1,7′-tetracyclo[8.6.0.0^2,6.0^11,15]hexadecane]-1′(10′),3′,5′,8′,11′(15′)-pentaene], the figure is 14 nM.
Same read-out and setting: as for `Cc1nnc2n1-c1sc3c(c1C(c1ccccc1Cl)=NC21CC1)C[C@H](C(=O)NC1CCc2cnn(C)c2C1)C3` (stereo partly drawn) [Example 54], the figure is 6.6 nM; as for `CC(=O)N1CCC(N(C)C(=O)[C@@H]2Cc3sc4c(c3C2)C(c2ccccc2Cl)=NC2(CC2)c2nnc(C)n2-4)CC1` [Example 73], 21 nM.
`Cc1nnc2n1-c1sc3c(c1C(c1ccccc1Cl)=NC21CC1)C[C@H](C(=O)N[C@@H](C)CF)C3` [Example 125] yielded an IC50 of 5.8 nM.
The same measure, in the same setting: next, `Cc1nnc2n1-c1sc3c(c1C(c1ccccc1Cl)=NC21CC1)C[C@H](C(=O)N(C)[C@H]1c2ccccc2CC[C@@H]1O)C3` [Example 86]: 4 nM; `Cc1nnc2n1-c1sc3c(c1C(c1ccccc1Cl)=NC21CC1)C[C@H](C(=O)N[C@@H]1CCc2cc(C#N)ccc21)C3` [Example 63]: 1.7 nM; `Cc1nnc2n1-c1sc3c(c1C(c1ccccc1Cl)=NC21CC1)C[C@H](C(=O)N[C@H]1COC[C@H]1c1ccccc1)C3` [Example 39]: 3.1 nM.
As for `Cc1nnc2n1-c1sc3c(c1C(c1ccccc1Cl)=NC21CC1)C[C@H](C(=O)NC1CC1(C)C)C3` (stereo partly drawn) [Example 40], the half-maximal inhibitory concentration (IC50) was found to be 1.9 nM.
For the molecule `Cc1nnc2n1-c1sc3c(c1C(c1ccccc1Cl)=NC21CC1)C[C@H](C(=O)N[C@@H]1COC[C@@H]1C)C3` [Example 30], the IC50 was 7.2 nM.
Same read-out and setting: as for `Cc1nnc2n1-c1sc3c(c1C(c1ccccc1Cl)=NC21CC1)C[C@H](C(=O)NC1(C)CCCC1)C3` [Example 26], the figure is 1.3 nM; as for `Cc1nnc2n1-c1sc3c(c1C(c1ccccc1Cl)=NC21CC1)C[C@H](C(=O)NC1CCOCC1)C3` [Example 51], 12 nM; as for `Cc1nnc2n1-c1sc3c(c1C(c1ccccc1Cl)=NC21CC1)C[C@H](C(=O)N1CC(C)(C)C1)C3` [Example 65], 2.8 nM.
On the same count and under the same terms, as for `Cc1nnc2n1-c1sc3c(c1C(c1ccccc1Cl)=NC21CC1)C[C@H](C(=O)N[C@@H]1CCc2ccccc21)C3` [Example 32], the figure is 1 nM.
`Cc1nnc2n1-c1sc3c(c1C(c1ccccc1Cl)=NC21CC1)C[C@H](C(=O)N1CC2CC1C2)C3` [Example 11]: inhibition was half-maximal at 3.6 nM (IC50).
The molecule `Cc1nnc2n1-c1sc3c(c1C(c1ccccc1Cl)=NC21CC1)C[C@H](C(=O)N1CCOCC12CC2)C3` [Example 127, (13′S)-9′-(2-chlorophenyl)-3′-methyl-13′-{7-oxa-4-azaspiro[2.5]octane-4-carbonyl}-16′-thia-2′,4′,5′,8′-tetraazaspiro[cyclopropane-1,7′-tetracyclo[8.6.0.0^2,6.0^11,15]hexadecane]-1′(10′),3′,5′,8′,11′(15′)-pentaene] had an IC50 of 5.8 nM.
`Cc1nnc2n1-c1sc3c(c1C(c1ccccc1Cl)=NC21CC1)C[C@H](C(=O)N[C@H]1CCOC1)C3` [Example 78] registered a half-inhibitory concentration (IC50) of 15 nM.
Same read-out and setting: as for `Cc1nnc2n1-c1sc3c(c1C(c1ccccc1Cl)=NC21CC1)C[C@H](C(=O)NC1(c2cccc(F)c2)CC1)C3` [Example 56], the figure is 1.1 nM.

Staying with this assay, now noted: dedicated head-to-head comparison assay run: cyclopropylene vs di-methyl / cyclobutylene analogues.
`Cc1nnc2n1-c1sc3c(c1C(c1ccccc1Cl)=NC2(C)C)C[C@H](C(=O)N1CCOCC1)C3` [comparative example 1, reference compound] had a 50% inhibitory concentration (IC50) of 89 nM.
Same read-out and setting: next, `Cc1nnc2n1-c1sc3c(c1C(c1ccccc1Cl)=NC21CC1)C[C@H](C(=O)NC1CCOCC1)C3` [Example 51]: 9.7 nM; `Cc1nnc2n1-c1sc3c(c1C(c1ccccc1Cl)=NC2(C)C)C[C@H](C(=O)NC1CCc2cc(F)ccc21)C3` (stereo partly drawn) [reference compound]: 4.9 nM.
